# Source: ChEMBL document CHEMBL3108763, “[1,2,4]triazolo[4,3-a]phthalazines: inhibitors of diverse bromodomains” (J Med Chem, 2014)
# Legend:
# [1] = molecular target: Bromodomain adjacent to zinc finger domain protein 2B (Homo sapiens) (UniProt Q9UIF8); conditions: 100 uM
# [2] = molecular target: T1, Transcription intermediary factor 1-alpha (Homo sapiens) (UniProt O15164); conditions: 100 uM
# T1 sequence (whole entry): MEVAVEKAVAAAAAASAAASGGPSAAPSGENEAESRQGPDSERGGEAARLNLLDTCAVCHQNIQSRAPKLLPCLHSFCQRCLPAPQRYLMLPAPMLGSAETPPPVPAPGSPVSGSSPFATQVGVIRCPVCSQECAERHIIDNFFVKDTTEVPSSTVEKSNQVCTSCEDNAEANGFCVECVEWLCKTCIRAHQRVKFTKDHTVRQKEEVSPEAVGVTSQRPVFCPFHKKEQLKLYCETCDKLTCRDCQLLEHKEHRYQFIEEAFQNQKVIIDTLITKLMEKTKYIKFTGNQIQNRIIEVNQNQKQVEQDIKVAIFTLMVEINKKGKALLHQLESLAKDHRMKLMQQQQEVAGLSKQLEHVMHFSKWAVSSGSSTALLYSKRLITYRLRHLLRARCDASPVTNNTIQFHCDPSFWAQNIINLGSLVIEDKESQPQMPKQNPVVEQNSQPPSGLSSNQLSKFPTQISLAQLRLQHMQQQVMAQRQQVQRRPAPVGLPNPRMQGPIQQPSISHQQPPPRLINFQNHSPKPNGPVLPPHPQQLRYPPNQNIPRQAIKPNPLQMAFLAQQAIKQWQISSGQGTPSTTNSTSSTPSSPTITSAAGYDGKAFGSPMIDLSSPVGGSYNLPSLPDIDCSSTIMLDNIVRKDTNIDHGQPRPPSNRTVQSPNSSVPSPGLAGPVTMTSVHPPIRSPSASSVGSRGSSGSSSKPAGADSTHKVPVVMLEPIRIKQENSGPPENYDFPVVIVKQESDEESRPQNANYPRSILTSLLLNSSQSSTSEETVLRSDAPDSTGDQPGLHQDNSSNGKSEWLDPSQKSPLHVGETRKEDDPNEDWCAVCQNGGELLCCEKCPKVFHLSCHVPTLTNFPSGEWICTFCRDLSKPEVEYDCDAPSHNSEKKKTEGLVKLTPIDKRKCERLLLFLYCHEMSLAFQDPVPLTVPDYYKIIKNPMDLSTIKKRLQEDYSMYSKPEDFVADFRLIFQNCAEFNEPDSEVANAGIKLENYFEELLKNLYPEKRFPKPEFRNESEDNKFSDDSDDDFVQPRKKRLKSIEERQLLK
# [3] = molecular target: Protein polybromo-1 (Homo sapiens) (UniProt Q86U86); conditions: 100 uM
# [4] = molecular target: T1, Transcription intermediary factor 1-alpha (Homo sapiens); conditions: 50 uM
# Protein polybromo-1 (Homo sapiens), sequence (Q86U86 whole entry): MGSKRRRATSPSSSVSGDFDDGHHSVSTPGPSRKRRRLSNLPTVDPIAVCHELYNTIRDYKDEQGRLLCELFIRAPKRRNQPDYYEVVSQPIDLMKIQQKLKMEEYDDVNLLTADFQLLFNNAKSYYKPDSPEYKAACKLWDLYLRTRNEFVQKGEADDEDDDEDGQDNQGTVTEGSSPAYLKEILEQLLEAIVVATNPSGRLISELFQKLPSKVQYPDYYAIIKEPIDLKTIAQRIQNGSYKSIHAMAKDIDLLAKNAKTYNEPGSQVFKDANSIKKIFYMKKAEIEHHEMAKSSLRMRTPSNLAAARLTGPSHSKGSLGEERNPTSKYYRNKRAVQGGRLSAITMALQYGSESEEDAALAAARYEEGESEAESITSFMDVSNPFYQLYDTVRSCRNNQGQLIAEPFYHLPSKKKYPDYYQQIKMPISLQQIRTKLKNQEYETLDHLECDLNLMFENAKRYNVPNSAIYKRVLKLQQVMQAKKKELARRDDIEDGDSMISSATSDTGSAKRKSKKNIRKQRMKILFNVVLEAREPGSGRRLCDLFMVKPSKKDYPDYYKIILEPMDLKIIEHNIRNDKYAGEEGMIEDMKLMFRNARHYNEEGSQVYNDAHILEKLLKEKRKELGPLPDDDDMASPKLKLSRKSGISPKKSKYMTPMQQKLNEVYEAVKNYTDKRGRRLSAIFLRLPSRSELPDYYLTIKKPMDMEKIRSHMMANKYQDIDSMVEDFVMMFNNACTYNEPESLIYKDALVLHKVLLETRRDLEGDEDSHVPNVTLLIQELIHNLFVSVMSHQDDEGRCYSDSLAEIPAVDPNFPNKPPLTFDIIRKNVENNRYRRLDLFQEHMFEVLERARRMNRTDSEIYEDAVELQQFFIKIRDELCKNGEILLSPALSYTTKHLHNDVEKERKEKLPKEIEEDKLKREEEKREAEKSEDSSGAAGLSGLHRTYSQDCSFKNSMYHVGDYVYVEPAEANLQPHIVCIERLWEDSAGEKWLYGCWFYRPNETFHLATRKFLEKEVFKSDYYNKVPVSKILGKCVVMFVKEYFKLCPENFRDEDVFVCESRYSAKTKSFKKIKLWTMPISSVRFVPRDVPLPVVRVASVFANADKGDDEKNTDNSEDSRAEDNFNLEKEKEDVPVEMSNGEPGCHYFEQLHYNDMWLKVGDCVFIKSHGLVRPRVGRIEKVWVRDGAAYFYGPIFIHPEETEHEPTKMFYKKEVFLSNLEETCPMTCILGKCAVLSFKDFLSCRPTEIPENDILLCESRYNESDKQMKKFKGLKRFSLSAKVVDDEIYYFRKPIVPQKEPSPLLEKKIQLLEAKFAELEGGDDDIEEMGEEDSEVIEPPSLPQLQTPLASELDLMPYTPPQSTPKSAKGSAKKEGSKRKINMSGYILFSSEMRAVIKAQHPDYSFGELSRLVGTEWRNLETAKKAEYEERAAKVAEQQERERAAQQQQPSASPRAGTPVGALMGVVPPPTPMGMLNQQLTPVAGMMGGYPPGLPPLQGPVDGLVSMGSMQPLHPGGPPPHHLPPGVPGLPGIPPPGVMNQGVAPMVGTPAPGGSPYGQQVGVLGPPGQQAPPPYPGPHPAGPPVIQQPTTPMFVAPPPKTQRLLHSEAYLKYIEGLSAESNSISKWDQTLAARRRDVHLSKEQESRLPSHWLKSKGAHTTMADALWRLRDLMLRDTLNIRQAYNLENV
# Bromodomain adjacent to zinc finger domain protein 2B (Homo sapiens), sequence (Q9UIF8 whole entry, the tested form may be a part): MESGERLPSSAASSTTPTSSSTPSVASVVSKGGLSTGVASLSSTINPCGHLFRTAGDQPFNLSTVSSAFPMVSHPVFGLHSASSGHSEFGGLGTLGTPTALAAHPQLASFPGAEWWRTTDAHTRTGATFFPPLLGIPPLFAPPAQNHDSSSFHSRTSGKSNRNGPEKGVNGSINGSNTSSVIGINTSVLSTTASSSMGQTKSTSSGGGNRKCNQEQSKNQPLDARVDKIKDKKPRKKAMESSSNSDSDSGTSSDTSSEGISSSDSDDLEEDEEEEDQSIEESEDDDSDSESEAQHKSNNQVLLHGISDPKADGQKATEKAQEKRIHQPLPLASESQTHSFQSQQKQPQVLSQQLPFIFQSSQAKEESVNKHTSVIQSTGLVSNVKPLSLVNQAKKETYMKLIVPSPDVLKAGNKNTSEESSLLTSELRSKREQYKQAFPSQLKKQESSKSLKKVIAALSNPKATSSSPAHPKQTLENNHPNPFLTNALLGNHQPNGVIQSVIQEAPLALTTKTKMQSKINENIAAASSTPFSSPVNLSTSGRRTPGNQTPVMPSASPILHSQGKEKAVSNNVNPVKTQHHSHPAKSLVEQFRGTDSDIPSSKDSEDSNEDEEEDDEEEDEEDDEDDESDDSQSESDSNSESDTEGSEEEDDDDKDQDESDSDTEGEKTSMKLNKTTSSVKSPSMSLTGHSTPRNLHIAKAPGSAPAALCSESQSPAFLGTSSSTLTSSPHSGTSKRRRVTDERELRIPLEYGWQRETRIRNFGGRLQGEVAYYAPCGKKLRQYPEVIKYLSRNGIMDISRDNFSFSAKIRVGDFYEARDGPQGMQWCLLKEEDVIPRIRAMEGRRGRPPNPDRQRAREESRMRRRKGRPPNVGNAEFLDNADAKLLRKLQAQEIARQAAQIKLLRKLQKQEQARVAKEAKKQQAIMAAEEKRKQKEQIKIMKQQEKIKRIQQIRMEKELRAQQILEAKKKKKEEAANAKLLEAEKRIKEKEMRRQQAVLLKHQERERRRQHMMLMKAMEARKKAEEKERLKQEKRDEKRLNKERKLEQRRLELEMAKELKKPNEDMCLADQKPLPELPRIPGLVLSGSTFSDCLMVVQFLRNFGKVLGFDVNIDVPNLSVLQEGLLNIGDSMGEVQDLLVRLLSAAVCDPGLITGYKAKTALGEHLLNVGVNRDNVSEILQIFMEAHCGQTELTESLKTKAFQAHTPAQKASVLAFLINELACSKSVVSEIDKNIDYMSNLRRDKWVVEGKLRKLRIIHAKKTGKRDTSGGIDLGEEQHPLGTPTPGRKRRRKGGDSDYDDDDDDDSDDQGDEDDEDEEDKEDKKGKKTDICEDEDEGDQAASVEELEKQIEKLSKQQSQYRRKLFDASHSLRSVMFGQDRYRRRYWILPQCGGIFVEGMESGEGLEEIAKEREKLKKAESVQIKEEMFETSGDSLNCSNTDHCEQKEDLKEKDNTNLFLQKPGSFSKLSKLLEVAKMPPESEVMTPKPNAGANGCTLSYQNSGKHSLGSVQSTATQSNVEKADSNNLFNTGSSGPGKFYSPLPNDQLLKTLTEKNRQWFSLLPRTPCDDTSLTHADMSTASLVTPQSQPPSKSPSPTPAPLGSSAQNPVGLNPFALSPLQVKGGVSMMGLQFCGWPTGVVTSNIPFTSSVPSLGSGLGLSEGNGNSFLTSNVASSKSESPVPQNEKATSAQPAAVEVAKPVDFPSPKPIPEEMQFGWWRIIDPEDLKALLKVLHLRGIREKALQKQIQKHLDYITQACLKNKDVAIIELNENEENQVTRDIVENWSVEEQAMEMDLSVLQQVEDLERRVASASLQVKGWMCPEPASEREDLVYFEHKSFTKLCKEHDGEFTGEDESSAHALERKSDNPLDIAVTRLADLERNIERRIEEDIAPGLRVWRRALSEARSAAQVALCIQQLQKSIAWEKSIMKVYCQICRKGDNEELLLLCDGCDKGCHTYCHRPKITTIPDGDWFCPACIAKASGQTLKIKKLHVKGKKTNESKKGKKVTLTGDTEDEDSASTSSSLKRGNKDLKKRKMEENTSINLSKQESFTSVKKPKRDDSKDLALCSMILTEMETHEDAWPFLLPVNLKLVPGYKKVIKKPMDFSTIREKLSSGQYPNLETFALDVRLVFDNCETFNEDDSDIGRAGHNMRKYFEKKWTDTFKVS
compound,measurement,setting,value
Cc1ccc(-c2nn3c(C)nnc3c3ccccc23)cc1NS(C)(=O)=O,inhibition,[1],< 25%
same,inhibition,[2],< 25%
same,inhibition,[3],< 25%
Cc1ccc(-c2nn3c(C)nnc3c3ccccc23)cc1S(=O)(=O)N(C)C,inhibition,[1],< 25%
same,inhibition,[2],< 25%
same,inhibition,[3],< 25%
COc1ccc(S(=O)(=O)Nc2cc(-c3nn4c(C)nnc4c4ccccc34)ccc2N2CCN(C)CC2)cc1,inhibition,[4],< 30%
CNS(=O)(=O)c1cc(-c2nn3c(C)nnc3c3ccccc23)ccc1C,inhibition,[1],< 25%
same,inhibition,[2],< 25%
same,inhibition,[3],< 25%
Cc1nnc2c3ccccc3c(-c3ccc(N4CCOCC4)c(NS(C)(=O)=O)c3)nn12,inhibition,[4],< 30%
Cc1nnc2c3ccccc3c(-c3ccc(N4CCOCC4)c(NS(=O)(=O)c4ccccc4Cl)c3)nn12,inhibition,[4],< 30%
Cc1nnc2c3ccccc3c(-c3ccc(N4CCOCC4)c(NS(=O)(=O)c4ccc(Cl)cc4)c3)nn12,inhibition,[4],< 30%
CCC(=O)Nc1cc(-c2nn3c(C)nnc3c3ccccc23)ccc1C,inhibition,[1],< 25%
same,inhibition,[2],< 25%
same,inhibition,[3],< 25%
